Measured values reported in patent US20230174636A1, “COMPOSITIONS AND METHODS FOR TREATING CANCER” (RUSH UNIVERSITY MEDICAL CENTER, priority 2020, published 2023).
Where no end group is shown, it is not given here. [ ]: non-standard residue; d: D form.

Key:
[1] = test system: Hep3B (human liver cancer cells); assay: MTT assay (cell viability), Hep3B; format: cell-based; conditions: 48 h, serum-free, combined with mAb a3-3a
Method: (§1) MTT assay: Mitochondrial activity was measured with the 3-(4, 5-dimethylthiazol-2-yl)-2, 5-diphenyltetrazolium bromide (MTT) assay (Sigma) as described before. The cells were grown on 24-well culture plates with 500 μl of medium and treated with various reagents according to the experimental design. At the end of the treatment period, 300 μl of culture medium were removed from each well, and 20 μl of MTT solution (5 mg/ml) were added and incubated for 1 h.

splenocytes = assay: FACS of T cells in splenocytes of PDX mice; format: in vivo; conditions: intranasal peptide plus p40 mAb, 3 weeks
Method: Isolation of splenocytes: Spleens isolated from treated or untreated PDX mice were placed into a cell strainer and mashed with a syringe plunger. Resulting single-cell suspensions were treated with RBC lysis buffer (Sigma-Aldrich), washed, and cultured in RPMI 1640 supplemented with 10% FBS, 50 μM 2-ME, 2 mM L-glutamine, 100 U/ml penicillin, and 100 μg/ml streptomycin.
Flow cytometry: Single-cell suspensions isolated from mouse spleen or tumor were stained with Zombie Aqua™ Fixable Viability Kit (Biolegend) according to the manufacturer's instructions. Cells were washed with FACS buffer (ThermoFisher) and stained with FITC-anti-human CD4 antibody and APC/Cy7-anti-human CD8 antibody (Biolegend) for extracellular stains. For IFNγ staining, cells were stained with PE-anti-human IFNγ antibody (Biolegend) and detected by flow cytometry analysis. Only PE-treated and unstained cells served as control. Flow cytometric analyses were performed using the LSRFortessa analyzer (BD Biosciences) and analyzed using the FlowJo Software (v10) as described.

BT-549 cells = assay: MTT assay (cell viability), BT-549; format: cell-based, human; conditions: BT-549, 48 h, serum-free, combined with mAb a3-3a
Method: as §1

IFNγ, IL-10 = assay: Serum IFNγ and IL-10 by sandwich ELISA in PDX mice; format: in vivo; conditions: peptide 0.1 mg/kg daily intranasal plus p40 mAb, 2 weeks
Method: (§2) Sandwich ELISA: Sandwich ELISA was used to quantify p402 and p40 as described by us. Briefly, for p402, mAb a3-1d (1.3 mg/mL) was diluted 1:3000 and added to each well (100 μL/well) of a 96-well ELISA plate for coating. The biotinylated p402 mAb d7-12c (2 mg/mL) was diluted 1:3000 and used as detection antibody. Similarly for p40, mAb a3-3a (1.3 mg/mL) and biotinylated p40 mAb a3-7g (2 mg/mL) were also diluted 1:3000 and used as coating and detection antibodies, respectively. Concentrations of IFN-γ, IL-12, IL-23, and IL-10 were measured in serum or tissue homogenates by ELISA (eBioscience/ThermoFisher), according to the manufacturer's instructions as described before.

human IFNγ, human IL-10 = assay: IFNγ and IL-10 in tumor tissue extracts by sandwich ELISA; format: in vivo, mice; conditions: peptide 0.1 mg/kg daily intranasal plus p40 mAb, 2 weeks
Method: FIG. 23A-23B. Intranasal wtTIDM peptide stimulates the p40 mAb-mediated induction of IFNγ while reducing the level of IL-10 in TNBC tumor tissues of patient-derived xenograft (PDX) mice. Female 6-8 week old NOD scid gamma (NSG) mice were engrafted TNBC tumor fragments at passage P1-P9 (invasive ductal carcinoma; TNBC ER^−/−/PR^−/−/HER2^−/−) in the flank. After about 4 weeks of engraftment, when tumors of PDX mice were 0.6-0.8 cm^2 in size, mice were treated with p40 mAb and hamster IgG at a dose of 2 mg/kg body wt once a week. Mice were also treated with wild type (wt) and mutated (m) TLR2-interacting domain of MyD88 (TIDM) peptide at a dose of 0.1 mg/kg body wt daily via intranasal route. After 2 weeks of treatment, levels of human IFNγ (23A) and human IL-10 (23B) were measured in tumor tissue extracts by sandwich ELISA (Thermofisher). Results are mean±SEM of 6-7 mice per group. ***p<0.001.
as §2

TNBC tumor [2] = assay: H&E staining of tumor sections of PDX mice; format: in vivo; conditions: peptide 0.1 mg/kg daily intranasal plus p40 mAb 2 mg/kg weekly, 2 weeks
MCF-7 cells = assay: MTT assay (cell viability), MCF-7; format: cell-based, human; conditions: MCF-7, 48 h, serum-free, combined with mAb a3-3a
Method: as §1

TNBC tumor [3] = assay: Tumor size in PDX mouse model of TNBC; format: in vivo, mice; conditions: for tumor shrinkage in mAb a3-3a-treated TNBC mice / shrinkage of TNBC tumor in mAb a3-3a-treated mice: peptide 0.1 mg/kg daily intranasal plus a3-3a 2 mg/kg weekly i.p.; for tumor shrinkage in mAb a3-3a-treated TNBC mice: three weeks; for p40 mAb a3-3a-mediated reduction of TNBC tumor: peptide 0.1 mg/kg daily intranasal plus p40 mAb 2 mg/kg weekly, 2 weeks, infrared imaging; for shrinkage of TNBC tumor in mAb a3-3a-treated mice: 3 weeks
Description: Animals: Animal maintaining and experiments were in accordance with National Institute of Health guidelines and were approved by the Institutional Animal Care and Use committee of the Rush University of Medical Center, Chicago, Ill. Patient-derived xenograft (PDX) model (ID # TM00096) was purchased from Jackson Laboratory, Bar Harbor, Me., USA. In this model, TNBC tumor fragments at passage P1-P9 (invasive ductal carcinoma; TNBC ER^−PR^−HER2^−) were engrafted in the flank of female 6-8 week old NOD scid gamma (NSG) mice. Mice were shipped to us by Jackson Laboratory within ˜2 weeks following tumor engraftment. PDX mice were maintained in our temperature-controlled animal vivarium with adequate food and water.
Tumor measurement: Tumor growth was measured with a caliper and tumor cross-sectional area was determined with the formula (mm^2=longest diameter X shortest diameter). Treatment with p40 mAb started when the tumor sizes reached 0.6-0.8 cm^2 in area. The p40 mAb a3-3a was injected once a week intraperitoneally in 0.1 ml volume of sterile PBS-1% normal mouse serum. The tumors were then measured to determine progression or regression. Infrared dye (Alexa 800-conjugated 2DG dye; Licor) was injected via tail-vein on the day before imaging analysis. Mice were sacrificed at the end of the study and tumor tissues were collected for different biochemical analyses.

| Substance | death by combination of mAb a3-3a and TIDM peptide (MTT) [1] | Tc1 (CD8+IFNγ+) response in p40 mAb-treated TNBC mice (splenocytes) | death by combination of mAb a3-3a and TIDM peptide (MTT) (BT-549 cells) | p40 mAb a3-3a-mediated induction of IFNγ in serum (IFNγ, IL-10) | p40 mAb a3-3a-mediated reduction of IL-10 in serum (IFNγ, IL-10) | p40 mAb a3-3a-mediated induction of IFNγ in tumor tissues (human IFNγ, human IL-10) | p40 mAb a3-3a-mediated reduction of IL-10 in tumor tissues (human IFNγ, human IL-10) | death of TNBC tumor in p40 mAb a3-3a-treated mice (H&E) (TNBC tumor [2]) | death by combination of mAb a3-3a and TIDM peptide (MTT) (MCF-7 cells) | tumor shrinkage in mAb a3-3a-treated TNBC mice (TNBC tumor [3]) | p40 mAb a3-3a-mediated reduction of TNBC tumor (TNBC tumor [3]) | death induced by p40 mAb a3-3a in presence of NBD peptide (MTT) [1] | death induced by p40 mAb a3-3a in presence of NBD peptide (MTT) (BT-549 cells) | death induced by p40 mAb a3-3a in presence of NBD peptide (MTT) (MCF-7 cells) | shrinkage of TNBC tumor in mAb a3-3a-treated mice (TNBC tumor [3]) |
| --- | --- | --- | --- | --- | --- | --- | --- | --- | --- | --- | --- | --- | --- | --- | --- |
| TLR2-interacting domain of MyD88 (TIDM) peptide (DRQIKIWFQNRRMKWKKPGAHQK; not fully specified (some residues)) [wtTIDM] | markedly induced death | markedly stimulated | markedly induced death | stimulated | potentiated | stimulated | potentiated | stimulated the death | markedly induced death | greater tumor shrinkage | significantly stimulated | – | – | – | – |
| NEMO-binding domain (NBD) peptide [wtNBD] | – | markedly stimulated | – | – | – | – | – | – | – | – | – | greater death | greater death | greater death | greater shrinkage |
| mNBD: Mutated (m) NBD control peptide, drqikiwfqnrrmkwkkLDASAL (SEQ ID NO: 9) ([dD][dR][dQ][dI][dK][dI][dW][dF][dQ][dN][dR][dR][dM][dK][dW][dK][dK]LDASAL) [reference compound] | – | – | – | – | – | – | – | – | – | – | – | not seen | not seen | not seen | did not exhibit such effect |
| mTIDM: Mutated (m) TIDM control peptide, drqikiwfqnrmikwkkPGWHGD (SEQ ID NO.: 5) ([dD][dR][dQ][dI][dK][dI][dW][dF][dQ][dN][dR][dM][dI][dK][dW][dK][dK]PGWHGD) [reference compound] | not | – | not | not | not | not | not | not | not | not | remained unable to stimulate | – | – | – | – |
